Experimental data: US6358975B1, “Method of using selective parp inhibitors to prevent or treat neurotoxicity” (Johns Hopkins University, priority 1997, dated 2002)
Where two headings read alike, the source gives them in different places.

Key:
[1] = system: infarct size in the heart; conditions: rabbits, cited from earlier work
[2] = molecular target: poly(ADP-ribose) polymerase; conditions: read-out: IC50 for inhibiting PARP; reported by Suto et al.; cited from earlier work
[3] = system: toxicity elicited by the NO-donor SNP in cortical cultures; assay: SNP (NO-donor) toxicity in cortical cultures from wild-type, PARP+/− and PARP−/− mice; format: cell-based
Procedure: (§1) Mice were obtained having a targeted disruption of the PARP gene (PARP−/−), generated by the method of Wang et al., “Mice Lacking ADPRT and poly(ADP-ribosyl)ation Develop Normally But Are Susceptible to Skin Disease”, Genes Dev., 9:509-20 (1995), which is hereby incorporated by reference. The toxicity in cortical cultures elicited by a five-minute exposure to 500 μM NMDA, by 60 minutes of oxygen and glucose deprivation (OGD), and by NO-donors was evaluated, comparing cultures or cerebral cortical cells from wild-type and PARP−/− mice, as shown in FIG. 2A.
(§2) Toxicity was assayed 20-24 hours after exposure to cytotoxic conditions by microscopic examination with computer-assisted cell counting, following staining of all nuclei with 1 μg/ml Hoescht 33342 and staining of dead cell nuclei with 7 μg/ml propidium iodide. All reagents were purchased from Sigma Chemicals, St. Louis, Mo.
Both total and dead cells were counted. Glial nuclei fluoresce at a different intensity than neuronal nuclei and were gated out. The percentage of cell death was determined as the […], as compared to the percentage of cell death in control wells to account for cell death due to mechanical stimulation of the cultures. […] The results are shown in FIG. 2A, with a minimum of 15,000-20,000 neurons counted per data point, which represented the mean ± standard error of the mean (SEM)(n=8).

[4] = system: OGD toxicity in cortical cultures; assay: Oxygen-glucose deprivation (OGD) toxicity in cortical cultures (FIG. 2C); format: cell-based, mice; conditions: 60 minutes OGD, MK801 10 μM, NArg 100 μM, L-arginine 1 mM, benzamide 500 μM; for effect on OGD toxicity in wild-type and PARP+/− cultures: DPQ 10 μM
Procedure: See Dawson et al., “Resistance to Neurotoxicity in Cortical Cultures from Neuronal Nitric Oxide Synthase Deficient Mice”, J. Neurosci., 16:2479-87 (1996), the disclosure of which is hereby incorporated by reference. Combined OGD was performed as described in Kaku et al., “Antagonism by non-NMDA Receptors Augments the Neuroprotective Effect of NMDA Receptor Blockage in Cortical Cultures Subjected to Prolonged Deprivation of Oxygen and Glucose”, Brain Res., 554:344-47 (1991) and/or Monyer et al., “Oxygen or Glucose Deprivation-induced Neuronal Injury in Cortical Cell Cultures is Reduced by Tetanus Toxin, Neuron, 8:967-73 (1992), both of which are hereby incorporated by reference.
Specifically, the culture media was completely exchanged with deoxygenated, glucose-free Earle's balanced salt solution (EBSS) containing: 116 mM NaCl, 5.4 mM KCl, 0.8 mM MgSO4, 1 mM NaH2PO4, and 0.9 mM CaCl2, bubbled with 5% H2/85% N2/5% CO2. The cultures were kept in a 37° C., anaerobic chamber for 60 minutes containing the gas mixture 5% H2/85% N2/5% CO2. Combined oxygen-glucose deprivation was terminated by removal of the cultures from the chamber and replacement of the EBSS solution with oxygenated growth media. The cultures were returned to a humidified incubator containing 5% CO2 and atmospheric oxygen at 37° C. overnight.
as §2
(§3) Both total and dead cells were counted. Glial nuclei fluoresce at a different intensity than neuronal nuclei and were gated out. The percentage of cell death was determined as the […], as compared to the percentage of cell death in control wells to account for cell death due to mechanical stimulation of the cultures. At least two separate experiments using four separate wells were performed. The results are shown in FIG. 2A, with a minimum of 15,000-20,000 neurons counted per data point, which represented the mean ± standard error of the mean (SEM)(n=8).

[5] = system: NMDA- or NO-induced neurotoxicity in primary cortical cell cultures; assay: Attenuation of NMDA- and NO (SNP)-induced neurotoxicity in primary cortical cell cultures (Example 1, FIG. 1); format: cell-based, mice; conditions: for EC50: Mus musculus, read-out: protection against NMDA- or NO-induced neurotoxicity, EC50 (50% of maximal protection)
Procedure: Primary cortical cell cultures were prepared from gestational, 16-day fetal mice in a procedure modified from the described in Dawson et al., “Resistance to Neurotoxicity in Cortical Cultures from Neuronal Nitric Oxide Synthase Deficient Mice”, J. Neurosci., 16:2479-87 (1996), the disclosure of which is hereby incorporated by reference. Specifically, the cortex was dissected, and the cortical cells were dissociated by a 30-minute digestion in 0.027% trypsin/saline solution (commercially available from Gibco BRL, Gaithersburg, Md.), followed by trituration in modified Eagle's medium (MEM), 20% horse serum, 25 mM glucose and 2 mM L-glutamine.
The cells were plated on 15 mm multi-well plates coated with polyornithine. Four days after plating, the cells were treated with 5-fluoro-2-deoxyuridine for three days to inhibit the proliferation of non-neuronal cells. The cells were then maintained in MEM, 10% horse serum, 25 mM glucose, and 2 mM L-glutamine in an 8% CO2, humidified 37° C. incubator. The growth medium was refreshed twice per week, and the neurons were allowed to mature for 14 days in culture before being used for experiments.
Before treatment, these critical cultures were washed with Tris buffered control salt solution (CSS) containing 120 mM NaCl, 5.4 mM KCl, 1.8 mM CaCl2, 25 mM Tris-HCl (pH 7.4) and 15 mM glucose. The washed cells were treated with NMDA or the NO-donor sodium nitroprusside (SNP) for five minutes and then washed again. The cells were then placed in growth media and returned to the incubator overnight.
Each data point represented the mean ± standard error of the mean (SEM) (n=8) of at least two separate experiments and reflected a minimum of 16,000 neurons counted.

[6] = system: NMDA toxicity in cerebral cortical cultures; assay: NMDA toxicity in cortical cultures from wild-type, PARP+/− and PARP−/− mice (FIG. 2B); format: cell-based; conditions: for effect on NMDA toxicity in wild-type and PARP+/− cultures / effect on NMDA toxicity in PARP−/− cultures: 500 μM NMDA, BZD 500 μM, DPQ 10 μM; for effect on NMDA toxicity in wild-type and PARP+/− cultures: five minutes, MK801 1 μM, NArg 100 μM; for effect on NMDA toxicity in PARP−/− cultures: L-Arg 1 mM
Procedure: as §1, §2, §3

[7] = system: NMDA toxicity in cerebral cortical cultures; conditions: concentration of 100 μM; Zhang et al. 1994; cited from earlier work
PARP = molecular target: T1, PARP (Mus musculus, UniProt P11103); assay: PARP catalytic (self-modification) assay, mouse brain nuclear fraction; format: biochemical; conditions: benzamide treatment
T1 construct: from tissue; host or cells: mouse brain (forebrain) nuclear fraction, wild-type 129/SV
T1 sequence (P11103 whole entry): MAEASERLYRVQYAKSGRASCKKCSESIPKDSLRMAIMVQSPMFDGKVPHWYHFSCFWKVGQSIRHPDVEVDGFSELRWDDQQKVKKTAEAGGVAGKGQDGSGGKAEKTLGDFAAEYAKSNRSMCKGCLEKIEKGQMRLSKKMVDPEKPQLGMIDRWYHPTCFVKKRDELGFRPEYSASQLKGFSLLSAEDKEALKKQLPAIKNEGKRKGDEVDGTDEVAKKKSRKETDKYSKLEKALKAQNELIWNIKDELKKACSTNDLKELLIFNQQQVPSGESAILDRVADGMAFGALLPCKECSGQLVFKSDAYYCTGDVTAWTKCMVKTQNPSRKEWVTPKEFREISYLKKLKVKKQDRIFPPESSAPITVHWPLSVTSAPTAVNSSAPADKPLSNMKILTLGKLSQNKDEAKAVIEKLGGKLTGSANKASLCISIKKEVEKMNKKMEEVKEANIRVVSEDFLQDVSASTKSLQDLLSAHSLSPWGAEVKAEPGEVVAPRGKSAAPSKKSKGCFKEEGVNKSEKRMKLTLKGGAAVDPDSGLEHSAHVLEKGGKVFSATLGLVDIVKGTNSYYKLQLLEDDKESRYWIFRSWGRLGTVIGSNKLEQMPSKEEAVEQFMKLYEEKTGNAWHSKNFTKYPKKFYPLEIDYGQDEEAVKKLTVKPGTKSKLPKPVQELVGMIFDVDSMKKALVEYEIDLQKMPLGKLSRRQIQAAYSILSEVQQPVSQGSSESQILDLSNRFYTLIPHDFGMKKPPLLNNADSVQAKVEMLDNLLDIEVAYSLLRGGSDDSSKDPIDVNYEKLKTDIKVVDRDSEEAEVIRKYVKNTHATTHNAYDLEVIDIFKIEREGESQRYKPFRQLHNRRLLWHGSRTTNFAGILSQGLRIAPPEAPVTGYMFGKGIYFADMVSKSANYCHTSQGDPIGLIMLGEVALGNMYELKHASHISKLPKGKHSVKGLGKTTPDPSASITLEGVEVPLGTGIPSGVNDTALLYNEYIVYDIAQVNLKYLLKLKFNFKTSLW

Row | SMILES | effect on OGD toxicity in wild-type and PARP+/− cultures [4] | effect on NMDA toxicity in wild-type and PARP+/− cultures [6] | effect on NMDA toxicity in PARP−/− cultures [6] | effect on OGD toxicity in PARP−/− cultures [4] | further results
1 | Oc1cccc2c(O)nccc12 [1,5-dihydroxyisoquinoline] |  |  |  |  | reduction in infarct size ([1]; 1 mg/kg): 38-48%
2 | NC(=O)c1cccc(N)c1 [3-aminobenzamide] |  |  |  |  | reduction in infarct size in the heart ([1]; single injection 10 mg/kg one minute before occlusion or one minute before reperfusion): 32-42%
3 | O=C1NCCc2c(OCCCCN3CCCCC3)cccc21 [DPQ, 3,4-dihydro-5-[4-(1-piperidinyl)-butoxy]-1(2H)-isoquinolinone] | abolished OGD toxicity | significantly greater reduction of NMDA toxicity than benzamide | no significant effects |  | IC50 [2]: 0.04 µM; effect on SNP toxicity in PARP−/− cultures [3]: no effect; effect on SNP toxicity in wild-type and PARP+/− cultures ([3]; not shown in FIG. 2): reduced the toxicity; potency relative to benzamide ([5]; DPQ vs benzamide): 500 times; EC50 ([5]; five-minute exposure to 500 μM NMDA or 500 μM SNP): 0.2 µM; effect on neurotoxicity at 10-100 μM ([5]; concentrations of 10-100 μM): virtually abolished neurotoxicity
4 | N=C(N)NCCC[C@H](N)C(=O)O [L-arginine] | reversed the nitroarginine protection |  | no significant effect | not in PARP−/− cultures | reversal of nitroarginine neuroprotection against NMDA toxicity in wild-type cultures ([6]; L-Arg 1 mM with NArg 100 μM): reversed the neuroprotective effect of nitroarginine
5 | C[C@]12N[C@H](Cc3ccccc31)c1ccccc12 [MK801] | profoundly reduced toxicity | abolished NMDA toxicity |  | no differential effects | 
6 | NC(=O)c1ccccc1 [benzamide] | reduced OGD toxicity | reduced NMDA toxicity | no significant effect | no influence | protection against NMDA neurotoxicity [7]: ~50%; reduction of neurotoxicity at the maximally effective concentration ([5]; 500 μM NMDA or 500 μM SNP, maximally effective concentration): 65%; EC50 [5]: ~100 µM; other ribosylated nuclear proteins (gray background) in wild-type catalytic assay (PARP): reduced
